Measured values as given in the CheMixHub ionic liquid set.

Test: xn = mol fraction of the nth substance listed
Conditions: 100 kPa; for electrical conductivity: frequency 0.001 MHz

NC(=O)C[C@H](N)C(=O)O + CCCC[N+](CCCC)(CCCC)Cc1ccccc1.[Cl-] + O
Conditions | electrical conductivity, 293.15 K [S/m] | electrical conductivity, 298.15 K [S/m] | electrical conductivity, 303.15 K [S/m] | electrical conductivity, 308.15 K [S/m] | electrical conductivity, 313.15 K [S/m] | viscosity, 293.15 K [mPa·s] | viscosity, 298.15 K [mPa·s] | viscosity, 303.15 K [mPa·s] | viscosity, 308.15 K [mPa·s] | viscosity, 313.15 K [mPa·s]
x1 = 0.0001802, x2 = 1.802e-05 | 0.0457 | 0.0482 | 0.0503 | 0.052 | 0.0553 | 0.959 | 0.919 | 0.882 | – | –
x1 = 0.0001803, x2 = 5.405e-05 | 0.0516 | 0.0545 | 0.0572 | 0.0607 | 0.0639 | 0.967 | 0.926 | 0.885 | – | –
x1 = 0.0001804, x2 = 9.008e-05 | 0.0589 | 0.066 | 0.0748 | 0.0813 | 0.0899 | 0.978 | 0.935 | 0.898 | – | –
x1 = 0.0004504, x2 = 1.801e-05 | 0.0517 | 0.0574 | 0.059 | 0.0615 | 0.0657 | 0.965 | 0.925 | 0.888 | 0.851 | 0.798
x1 = 0.0004507, x2 = 5.403e-05 | 0.0603 | 0.0634 | 0.0663 | 0.0714 | 0.0753 | 0.974 | 0.932 | 0.892 | 0.858 | 0.802
x1 = 0.000451, x2 = 9.005e-05 | 0.0728 | 0.0771 | 0.0832 | 0.0889 | 0.0937 | 0.985 | 0.941 | 0.904 | 0.862 | 0.81
x1 = 0.0007205, x2 = 1.801e-05 | 0.057 | 0.0653 | 0.0683 | 0.0709 | 0.0773 | 0.97 | 0.931 | 0.894 | 0.857 | 0.804
x1 = 0.0007209, x2 = 5.402e-05 | 0.0678 | 0.072 | 0.0765 | 0.0809 | 0.0884 | 0.98 | 0.938 | 0.898 | 0.864 | 0.809
x1 = 0.0007213, x2 = 9.003e-05 | 0.0805 | 0.087 | 0.0917 | 0.0967 | 0.104 | 0.992 | 0.947 | 0.91 | 0.868 | 0.817
x1 = 0.0009904, x2 = 1.8e-05 | 0.0635 | 0.0749 | 0.0776 | 0.0796 | 0.0859 | 0.975 | 0.936 | 0.899 | 0.863 | 0.81
x1 = 0.000991, x2 = 5.4e-05 | 0.0716 | 0.0812 | 0.0854 | 0.0913 | 0.0954 | 0.985 | 0.943 | 0.904 | 0.87 | 0.815
x1 = 0.0009916, x2 = 9e-05 | 0.0886 | 0.0965 | 0.102 | 0.104 | 0.111 | 0.997 | 0.952 | 0.916 | 0.874 | 0.825
x1 = 0.00126, x2 = 1.8e-05 | 0.0698 | 0.0826 | 0.0859 | 0.0888 | 0.0951 | 0.98 | 0.941 | 0.905 | 0.869 | 0.817
x1 = 0.001261, x2 = 5.399e-05 | 0.0783 | 0.0903 | 0.0935 | 0.0999 | 0.113 | 0.99 | 0.948 | 0.909 | 0.877 | 0.822
x1 = 0.001262, x2 = 8.998e-05 | 0.102 | 0.105 | 0.108 | 0.112 | 0.127 | 1.003 | 0.958 | 0.922 | 0.88 | 0.831
x1 = 0.00153, x2 = 1.799e-05 | 0.086 | 0.092 | 0.0943 | 0.0983 | 0.11 | 0.984 | 0.946 | 0.91 | 0.875 | 0.823
x1 = 0.001531, x2 = 5.397e-05 | 0.0934 | 0.0997 | 0.105 | 0.108 | 0.115 | 0.995 | 0.954 | 0.915 | 0.883 | 0.829
x1 = 0.001532, x2 = 8.995e-05 | 0.107 | 0.111 | 0.116 | 0.121 | 0.138 | 1.008 | 0.964 | 0.929 | 0.887 | 0.839
